According to ChEMBL document CHEMBL1157738, “Simocyclinone D8 turns on against Gram-negative bacteria in a clinical setting” (2010):
Values after ≈ are worked out from the molar mass of the structure shown.

What was measured:
Assay type in all cases: functional
Escherichia coli [1] = test: Antibacterial activity against Escherichia coli isolate 47 expressing qnr B19 gene after 24 hrs by twofold serial dilution method; conditions: Escherichia coli, isolate 47, 24 h
Escherichia coli [2] = test: Antibacterial activity against Escherichia coli XL-1Blue after 24 hrs by twofold serial dilution method; conditions: Escherichia coli, XL-1Blue, 24 h
Klebsiella pneumoniae [3] = test: Antibacterial activity against Klebsiella pneumoniae isolate 370 expressing qnr B19 gene, GyrA D87G mutant after 24 hrs by twofold serial dilution method; conditions: isolate 370, 24 h
Klebsiella pneumoniae [4] = test: Antibacterial activity against Klebsiella pneumoniae isolate 134 after 24 hrs by twofold serial dilution method; conditions: Klebsiella pneumoniae, isolate 134, 24 h
Escherichia coli [5] = test: Antibacterial activity against Escherichia coli JM109 after 24 hrs by twofold serial dilution method; conditions: Escherichia coli, JM109, 24 h
Escherichia coli [6] = test: Antibacterial activity against Escherichia coli Top10 after 24 hrs by twofold serial dilution method; conditions: Escherichia coli, Top10, 24 h
Escherichia coli [7] = test: Antibacterial activity against Escherichia coli HB101 after 24 hrs by twofold serial dilution method; conditions: Escherichia coli, HB101, 24 h
Escherichia coli [8] = test: Antibacterial activity against Escherichia coli JM110 after 24 hrs by twofold serial dilution method; conditions: Escherichia coli, JM110, 24 h
Staphylococcus aureus = test: Antibacterial activity against Staphylococcus aureus after 24 hrs by twofold serial dilution method; conditions: Staphylococcus aureus, 24 h
Klebsiella pneumoniae [9] = test: Antibacterial activity against Klebsiella pneumoniae isolate 204 expressing qnr B19 gene after 24 hrs by twofold serial dilution method; conditions: Klebsiella pneumoniae, isolate 204, 24 h
Klebsiella pneumoniae [10] = test: Antibacterial activity against Klebsiella pneumoniae isolate 173 after 24 hrs by twofold serial dilution method; conditions: Klebsiella pneumoniae, isolate 173, 24 h
Klebsiella pneumoniae [11] = test: Antibacterial activity against Klebsiella pneumoniae isolate 92 after 24 hrs by twofold serial dilution method; conditions: Klebsiella pneumoniae, isolate 92, 24 h
Escherichia coli [12] = test: Antibacterial activity against Escherichia coli isolate 50 expressing qnr B19 gene after 24 hrs by twofold serial dilution method; conditions: Escherichia coli, isolate 50, 24 h
Escherichia coli [13] = test: Antibacterial activity against Escherichia coli isolate 9 expressing qnr B19 gene, GyrA D87G, ParC S80I mutant after 24 hrs by twofold serial dilution method; conditions: isolate 9, 24 h
Escherichia coli [14] = test: Antibacterial activity against Escherichia coli isolate 13 after 24 hrs by twofold serial dilution method; conditions: Escherichia coli, isolate 13, 24 h
Klebsiella pneumoniae [15] = test: Antibacterial activity against Klebsiella pneumoniae isolate 16 expressing qnr B19 gene, GyrA D87G mutant after 24 hrs by twofold serial dilution method; conditions: isolate 16, 24 h
Klebsiella pneumoniae [16] = test: Antibacterial activity against Klebsiella pneumoniae isolate 97 expressing qnr B19 gene after 24 hrs by twofold serial dilution method; conditions: Klebsiella pneumoniae, isolate 97, 24 h
Escherichia coli [17] = test: Antibacterial activity against Escherichia coli isolate 191 expressing qnr S1 gene after 24 hrs by twofold serial dilution method; conditions: Escherichia coli, isolate 191, 24 h
Klebsiella pneumoniae [18] = test: Antibacterial activity against Klebsiella pneumoniae isolate 91 after 24 hrs by twofold serial dilution method; conditions: Klebsiella pneumoniae, isolate 91, 24 h
Klebsiella pneumoniae [19] = test: Antibacterial activity against Klebsiella pneumoniae isolate 5 expressing qnr B19 gene, GyrA D87G mutant after 24 hrs by twofold serial dilution method; conditions: isolate 5, 24 h
Escherichia coli [20] = test: Antibacterial activity against Escherichia coli isolate 7 after 24 hrs by twofold serial dilution method; conditions: Escherichia coli, isolate 7, 24 h
Escherichia coli [21] = test: Antibacterial activity against Escherichia coli isolate 95 expressing GyrA S83L mutant after 24 hrs by twofold serial dilution method; conditions: isolate 95, 24 h
Escherichia coli [22] = test: Antibacterial activity against Escherichia coli isolate 24 after 24 hrs by twofold serial dilution method; conditions: Escherichia coli, isolate 24, 24 h
Escherichia coli [23] = test: Antibacterial activity against Escherichia coli isolate 85 expressing GyrA S83L mutant after 24 hrs by twofold serial dilution method; conditions: isolate 85, 24 h
Klebsiella pneumoniae [24] = test: Antibacterial activity against Klebsiella pneumoniae isolate 328 expressing qnr B19 gene, GyrA D87G mutant after 24 hrs by twofold serial dilution method; conditions: isolate 328, 24 h
Escherichia coli [25] = test: Antibacterial activity against Escherichia coli isolate 41 after 24 hrs by twofold serial dilution method; conditions: Escherichia coli, isolate 41, 24 h
Klebsiella pneumoniae [26] = test: Antibacterial activity against Klebsiella pneumoniae isolate 110 expressing qnr B19 gene, GyrA D87G mutant after 24 hrs by twofold serial dilution method; conditions: isolate 110, 24 h
Klebsiella pneumoniae [27] = test: Antibacterial activity against Klebsiella pneumoniae isolate 172 expressing qnr B19 gene, GyrA D87G mutant after 24 hrs by twofold serial dilution method; conditions: isolate 172, 24 h
Escherichia coli [28] = test: Antibacterial activity against Escherichia coli isolate 21 after 24 hrs by twofold serial dilution method; conditions: Escherichia coli, isolate 21, 24 h
Escherichia coli [29] = test: Antibacterial activity against Escherichia coli isolate 115 expressing GyrA S83L mutant after 24 hrs by twofold serial dilution method; conditions: isolate 115, 24 h

SMILES: O=C(O)c1cn(C2CC2)c2cc(N3CCNCC3)c(F)cc2c1=O [CIPROFLOXACIN]
- MIC90 (Escherichia coli [1]): < 0.25 µg/mL
- MIC90 (Escherichia coli [2]): > 4 µg/mL
- MIC90 (Klebsiella pneumoniae [3]): > 4 µg/mL
- MIC90 (Klebsiella pneumoniae [4]): < 0.25 µg/mL
- MIC90 (Escherichia coli [5]): > 4 µg/mL
- MIC90 (Escherichia coli [6]): < 0.25 µg/mL
- MIC90 (Escherichia coli [7]): < 0.25 µg/mL
- MIC90 (Escherichia coli [8]): > 4 µg/mL
- MIC90 (Staphylococcus aureus): > 4 µg/mL
- MIC90 (Klebsiella pneumoniae [9]): 0.75 µg/mL (≈ 2.26 µM)
- MIC90 (Klebsiella pneumoniae [10]): > 4 µg/mL
- MIC90 (Klebsiella pneumoniae [11]): < 0.25 µg/mL
- MIC90 (Escherichia coli [12]): < 0.25 µg/mL
- MIC90 (Escherichia coli [13]): > 4 µg/mL
- MIC90 (Escherichia coli [14]): > 4 µg/mL
- MIC90 (Klebsiella pneumoniae [15]): 2 µg/mL (≈ 6.04 µM)
- MIC90 (Klebsiella pneumoniae [16]): < 0.25 µg/mL
- MIC90 (Escherichia coli [17]): 1 µg/mL (≈ 3.02 µM)
- MIC90 (Klebsiella pneumoniae [18]): > 4 µg/mL
- MIC90 (Klebsiella pneumoniae [19]): < 0.25 µg/mL
- MIC90 (Escherichia coli [20]): > 4 µg/mL
- MIC90 (Escherichia coli [21]): 1 µg/mL (≈ 3.02 µM)
- MIC90 (Escherichia coli [22]): < 0.25 µg/mL
- MIC90 (Escherichia coli [23]): 0.5 µg/mL (≈ 1.51 µM)
- MIC90 (Klebsiella pneumoniae [24]): > 4 µg/mL
- MIC90 (Escherichia coli [25]): < 0.25 µg/mL
- MIC90 (Klebsiella pneumoniae [26]): < 0.25 µg/mL
- MIC90 (Klebsiella pneumoniae [27]): < 0.25 µg/mL
- MIC90 (Escherichia coli [28]): 4 µg/mL (≈ 12.1 µM)
- MIC90 (Escherichia coli [29]): 0.5 µg/mL (≈ 1.51 µM)
